Reference: patent US12435050B2, “Benazolin-choline and its use in the agrochemical field” (BAYER AKTIENGESELLSCHAFT, priority 2019, dated 2025)
Entries after “also recorded” stand apart in the source; their conditions may differ. Where two headings read alike, the source gives them in different places.

Legend:
[1] = test system: Amaranthus retroflexus (AMARE); assay: Greenhouse weed control efficacy on AMARE; type: in vivo; conditions: for % Control compared to untreated AMARE plants 21 DAA: 100 g a.e./ha, AMARE at BBCH 16-19 at application, visual rating 21 DAA; for % Control compared to untreated plants 21 DAA AMARE: BBCH 16-19, 21 DAA
Description: (§1) The different forms of benazolin were applied to weed plants in the greenhouse or in the field at the growth stage indicated for the different weed species hereinafter. The trials in the greenhouse were sprayed with an application volume of 300 L/ha with an automated track sprayer. The plots in the field were sprayed with an application volume of 140 L/ha with a hand held spray boom. Twenty-one days after application (21 DAA) or twenty-eight days after application (28 DAA) the different weed species were visually rated on a percentage scale in relation to the untreated control (100%=all plants dead; 50%=green plant biomass reduced by 50%, and 0%=no discernible difference=like control plot). The growth stages of the different weed species are indicated according to the BBCH monograph “Growth stages of mono- and dicotyledonous plants”, 2nd edition, 2001, ed. Uwe Meier, Federal Biological Research Centre for Agriculture and Forestry (Biologische Bundesanstalt für Land and Forstwirtschaft).

[2] = test system: Portulaca oleracea (POROL); assay: Field weed control efficacy on POROL; type: in vivo; conditions: 200 g a.e./ha, POROL at BBCH 21-22 at application
Description: as §1

[3] = test system: Alternanthera tenella (ALRTE); assay: Field weed control efficacy on ALRTE; type: in vivo; conditions: 200 g a.e./ha, ALRTE at BBCH 14-16 at application
Description: as §1

[4] = test system: Euphorbia heterophylla (EPHHL); assay: Field weed control efficacy on EPHHL; type: in vivo; conditions: 200 g a.e./ha, EPHHL at BBCH 16-17 at application
Description: as §1

[5] = cited from earlier work
[6] = test system: Chenopodium album (CHEAL); assay: Greenhouse weed control efficacy on CHEAL; type: in vivo; conditions: BBCH 15-24, 21 DAA
Description: as §1

[7] = Formulation compatibility: crystal formation after low temperature storage, mixing with glyphosate (Roundup Weathermax); type: physicochemical; conditions: benazolin salt SL10 mixed with Roundup Weathermax, ratio 4:1 (a.e., w/w), 5° C. for 2 days
Method: (§2) Here simple mixing experiments were performed with soluble liquid SL 10 formulations of benazolin salts containing […] a.e. of benazolin (see General procedure 51 above) containing no surfactant and commercially available dicamba and glyphosate formulations.
(§3) Formulation compatibility (solubility, miscibility and storability) tests of different benazolin salt SL 10 formulations in mixture with commercial formulations of herbicides such as dicamba or glyphosate were performed.
In a second experiment, Roundup® Weathermax was tank mixed with the respective benazolin salt SL 10 formulation in a 4:1 ratio by weight (w/w) based on the respective a.e. contents (in Table B5b referred to as “Ratio”) and the vial placed at 5° C. for 2 days.

[8] = Formulation compatibility: crystal formation after low temperature storage, mixing with dicamba (Clarity); type: physicochemical; conditions: benazolin salt SL10 mixed with Clarity, ratio 2:1 (a.e., w/w), 5° C. for 2 days
Method: as §2, §3
In a first experiment, Clarity® (a commercial formulation of dicamba) was tank mixed with the respective benazolin salt SL 10 formulation in a 2:1 ratio by weight (w/w) based on the respective a.e. contents (in Table B5a referred to as “Ratio”) and the vial placed at 5° C. for 2 days.

[9] = benazolin salt 100 g a.e./ha in combination with 100 g a.e./ha dicamba (Clarity)
[10] = benazolin salt 100 g a.e./ha in combination with 200 g a.e./ha dicamba (Clarity)
[11] = benazolin salt 100 g a.e./ha in combination with 300 g a.e./ha dicamba (Clarity)
[12] = free acid, temperature not printed with the values (b59 refers to 25° C.)

For `O=C(O)Cn1c(=O)sc2cccc(Cl)c21` [Benazolin, 4-Chloro-2,3-dihydro-2-oxo-1,3-benzothiazol-3-ylacetic acid], the “% Control compared to untreated AMARE plants 21 DAA” value [1] was 25%, the “% Control compared to untreated POROL plants 28 DAA” value [2] was 88% and the “% Control compared to untreated ALRTE plants 21 DAA” value [3] was 40%. The “% Control compared to untreated EPHHL plants 28 DAA” value [4] was 5% and the vapor pressure ([5]; at 20° C.) was 0.0001 mPa.

For `CCOC(=O)Cn1c(=O)sc2cccc(Cl)c21` [Benazolin-ethyl, Ethyl (4-chloro-2-oxo-1,3-benzothiazol-3(2H)-yl)acetate], the “% Control compared to untreated AMARE plants 21 DAA” value [1] was 35%, the “% Control compared to untreated POROL plants 28 DAA” value [2] was 88% and the “% Control compared to untreated ALRTE plants 21 DAA” value [3] was 40%. The “% Control compared to untreated EPHHL plants 28 DAA” value [4] was 8%.

With `O=C(O)Cn1c(=O)sc2cccc(Cl)c21` [Benazolin-BAPMA] the “% Control compared to untreated AMARE plants 21 DAA” value [1] was 65%, the “% Control compared to untreated plants 21 DAA AMARE” value [1, 9] was 35% and the “% Control compared to untreated plants 21 DAA AMARE” value [1, 10] was 50%. The “% Control compared to untreated plants 21 DAA AMARE” value [1, 11] was 65%, the “% Control compared to untreated plants 21 DAA CHEAL” value [6, 9] was 50% and the “% Control compared to untreated plants 21 DAA CHEAL” value [6, 10] was 65%. The “% Control compared to untreated plants 21 DAA CHEAL” value [6, 11] was 67%.

In the case of `O=C(O)Cn1c(=O)sc2cccc(Cl)c21` [Benazolin-DGA], the “% Control compared to untreated AMARE plants 21 DAA” value [1] is reported as 40%, the “% Control compared to untreated plants 21 DAA AMARE” value [1, 9] is reported as 35% and the “% Control compared to untreated plants 21 DAA AMARE” value [1, 10] is reported as 40%. The “% Control compared to untreated plants 21 DAA AMARE” value [1, 11] was 55%, the “% Control compared to untreated POROL plants 28 DAA” value [2] was 50% and the “Microscopic evaluation (crystal formation)” value [7] was “Crystal formation”. For the same molecule, the “Microscopic evaluation (shape of crystals)” value [7] was “needles”, the “Microscopic evaluation (size of crystals in μm)” value [7] was “(60-100 μm),” and the “% Control compared to untreated ALRTE plants 21 DAA” value [3] was 44%. The “% Control compared to untreated plants 21 DAA CHEAL” value [6, 9] was 25%, the “% Control compared to untreated plants 21 DAA CHEAL” value [6, 10] was 65% and the “% Control compared to untreated plants 21 DAA CHEAL” value [6, 11] was 50%. The “% Control compared to untreated EPHHL plants 28 DAA” value [4] was 8%.

For `O=C([O-])Cn1c(=O)sc2cccc(Cl)c21.[K+]` [Benazolin-K], the “Microscopic evaluation (crystal formation)” value [7] was “Crystal formation”, the “Microscopic evaluation (shape of crystals)” value [7] was “platelets + needles” and the “Microscopic evaluation (size of crystals in μm)” value [7] was “(20-50 μm),”.

For `O=C(O)COc1ccc(Cl)cc1Cl` [2,4-D, 2,4-dichlorophenoxy)acetic acid], the vapor pressure [5, 12] is listed as “about 0.019 mPa”.

In the case of `COc1c(Cl)ccc(Cl)c1C(=O)O` [Dicamba, 3,6-dichloro-2-methoxybenzoic acid], the vapor pressure [5, 12] is listed as 4.5 mPa.

With `O=C(O)Cn1c(=O)sc2cccc(Cl)c21` [Benazolin-choline] the “% Control compared to untreated AMARE plants 21 DAA” value [1] was 70%, the “% Control compared to untreated plants 21 DAA AMARE” value [1, 9] was 50% and the “% Control compared to untreated plants 21 DAA AMARE” value [1, 10] was 80%. The “% Control compared to untreated plants 21 DAA AMARE” value [1, 11] was 75%, the “Microscopic evaluation (crystal formation)” value [8] was “no crystal formation was observed; also recorded: No crystals” and the “% Control compared to untreated POROL plants 28 DAA” value [2] was 100%. The “Microscopic evaluation (crystal formation)” value [7] was “no crystal formation was observed; also recorded: No crystals”, the “% Control compared to untreated ALRTE plants 21 DAA” value [3] was 48% and the “% Control compared to untreated plants 21 DAA CHEAL” value [6, 9] was 70%. The “% Control compared to untreated plants 21 DAA CHEAL” value [6, 10] was 80%, the “% Control compared to untreated plants 21 DAA CHEAL” value [6, 11] was 85% and the “% Control compared to untreated EPHHL plants 28 DAA” value [4] was 13%.

With `O=C(O)Cn1c(=O)sc2cccc(Cl)c21` [Benazolin-DEA] the “Microscopic evaluation (crystal formation)” value [8] was “Crystal formation”, the “Microscopic evaluation (shape of crystals)” value [8] was “platelets + needles” and the “Microscopic evaluation (size of crystals in μm)” value [8] was “(20-40 μm),”.
